Source: publication PMC5831858, “Pharmacological characterisation of CR6086, a potent prostaglandin E2 receptor 4 antagonist, as a new potential disease-modifying anti-rheumatic drug” (Arthritis Research & Therapy, 2018)

What was measured:
[1] = molecular target: 5-HT2A (Homo sapiens, UniProt P28223); test: Serotonin receptor 5-HT2A binding; settings: [^3H]ketanserin, Human recombinant HEK-293 cells, read-out: CR6086 Activity at 10µM
[2] = molecular target: M1 (Homo sapiens, UniProt P11229); test: Muscarinic acetylcholine receptor M1 binding; settings: [^3H]pirenzepine, Human recombinant CHO cells, read-out: CR6086 Activity at 10µM
[3] = molecular target: VPAC1 (VIP1) (Homo sapiens, UniProt P32241); test: VPAC1 receptor binding; settings: [^125I]VIP, Human recombinant CHO cells, read-out: CR6086 Activity at 10µM
[4] = test system: Cl^- channel (GABA-gated); test: Ion channel Cl- (GABA-gated) binding; settings: [^35S]TBPS, Rat cerebral cortex
[5] = molecular target: CysLT1 (Cys-LTs) (Homo sapiens, UniProt Q9Y271); test: Eicosanoid receptor CysLT1 binding; settings: [^3H]LTD4, HEK-293 cells, read-out: CR6086 Activity at 10µM
[6] = molecular target: T1, EP3 (Homo sapiens, UniProt P43115); test: Eicosanoid receptor EP3 binding; settings: [^3H]PGE2, HEK-293 cells, read-out: CR6086 Activity at 10µM
T1 construct: host or cells: HEK-293 cells

[7] = test system: GABA (non-selective); test: GABA receptor (non-selective) binding; settings: [^3H]GABA, Rat cerebral cortex
[8] = molecular target: TP (TXA2/PGH2) (Homo sapiens, UniProt P21731); test: Eicosanoid receptor TP binding; settings: [^3H]SQ 29548, HEK-293 cells, read-out: CR6086 Activity at 10µM
[9] = test system: P2Y; test: Purinergic receptor P2Y binding; settings: [^35S]dATPαS, Rat cerebral cortex
[10] = molecular target: NK3 (Homo sapiens, UniProt P29371); test: Neurokinin receptor NK3 binding; settings: [^3H]SR 142801, Human recombinant CHO cells, read-out: CR6086 Activity at 10µM
[11] = molecular target: A3 (Homo sapiens, UniProt P0DMS8); test: Adenosine receptor A3 binding; settings: [^125I]AB-MECA, Human recombinant HEK-293 cells, read-out: CR6086 Activity at 10µM
[12] = molecular target: ETB (Homo sapiens, UniProt P24530); test: Endothelin receptor ETB binding; settings: [^125I]endothelin-1, Human recombinant CHO cells, read-out: CR6086 Activity at 10µM
[13] = molecular target: AT2 (Homo sapiens, UniProt P50052); test: Angiotensin receptor AT2 binding; settings: [^125I]CGP 42112A, Human recombinant HEK-293 cells, read-out: CR6086 Activity at 10µM
[14] = test system: PCP; test: PCP receptor binding; settings: [^3H]TCP, Rat cerebral cortex
[15] = test system: arthritic mice (collagen-induced arthritis model); test: CIA in mice, second study: serum cytokines and signal limb histology; format: in vivo, mouse; settings: 10 days
[16] = molecular target: H2 (Homo sapiens, UniProt P25021); test: Histamine receptor H2 binding; settings: [^125I]APT, Human recombinant CHO cells, read-out: CR6086 Activity at 10µM
[17] = molecular target: CXCR2 (IL-8B) (Homo sapiens, UniProt P25025); test: CXCR2 receptor binding; settings: [^125I]IL-8, Human recombinant HEK-293 cells, read-out: CR6086 Activity at 10µM
[18] = molecular target: D3 (Homo sapiens, UniProt P35462); test: Dopamine receptor D3 binding; settings: [^3H]methyl-spiperone, Human recombinant CHO cells, read-out: CR6086 Activity at 10µM
[19] = molecular target: AR (Homo sapiens, UniProt P10275, T878A); test: Nuclear receptor AR binding; settings: [^3H]methyltrienolone, LNCaP cells, read-out: CR6086 Activity at 10µM
[20] = molecular target: 5-HT transporter (Homo sapiens, UniProt P31645); test: 5-HT transporter binding; settings: [^3H]imipramine, Human recombinant CHO cells, read-out: CR6086 Activity at 10µM
[21] = molecular target: FP (Homo sapiens, UniProt P43088); test: Eicosanoid receptor FP binding; settings: [^3H]PGF2α, HEK-293 cells, read-out: CR6086 Activity at 10µM
[22] = molecular target: T2, COX-1 (Homo sapiens, UniProt P23219); test: Cyclooxygenase COX-1 enzymatic activity; format: biochemical; settings: Sf9 cells, read-out: CR6086 Activity at 10µM
T2 construct: host or cells: Sf9 cells

[23] = molecular target: NK2 (Homo sapiens, UniProt P21452); test: Neurokinin receptor NK2 binding; settings: [^125I]NKA, Human recombinant CHO cells, read-out: CR6086 Activity at 10µM
[24] = molecular target: 5-HT7 (Homo sapiens, UniProt P34969); test: Serotonin receptor 5-HT7 binding; settings: [^3H]LSD, Human recombinant CHO cells, read-out: CR6086 Activity at 10µM
[25] = test system: P2X; test: Purinergic receptor P2X binding; settings: [^3H]α,β-MeATP, Rat urinary bladder
[26] = test system: arthritic mice (collagen-induced arthritis model); test: Serum anti-bCII IgG antibodies (ELISA), CIA mice third study; format: in vivo, mouse; settings: 30 mg/kg CR6086, end of treatment
Method: In a third study, mice were randomised into the following treatment groups: naive, vehicle, 30 mg/kg CR6086, 1 or 3 mg/kg MTX, with the latter administered alone or in combination with 30 mg/kg CR6086. CR6086 was administered orally once daily. MTX was administered intraperitoneally three times per week (every third day). Mice were treated with test drugs for 16 days.
At the end of the treatment period, animals were killed, and their paws were explanted and processed for histology. In the third study, the serum concentrations of immunoglobulin G (IgG) antibodies against bCII were measured by ELISA (catalogue number 2032; Chondrex, Redmond, WA, USA).

[27] = test system: SKCa channel; test: Ion channel SKCa binding; settings: [^125I]apamin, Rat cerebral cortex
[28] = 30 mg/kg oral daily, mean ± SEM
[29] = 60 mg/kg oral daily, mean ± SEM

Chain of M1 (P11229 whole entry): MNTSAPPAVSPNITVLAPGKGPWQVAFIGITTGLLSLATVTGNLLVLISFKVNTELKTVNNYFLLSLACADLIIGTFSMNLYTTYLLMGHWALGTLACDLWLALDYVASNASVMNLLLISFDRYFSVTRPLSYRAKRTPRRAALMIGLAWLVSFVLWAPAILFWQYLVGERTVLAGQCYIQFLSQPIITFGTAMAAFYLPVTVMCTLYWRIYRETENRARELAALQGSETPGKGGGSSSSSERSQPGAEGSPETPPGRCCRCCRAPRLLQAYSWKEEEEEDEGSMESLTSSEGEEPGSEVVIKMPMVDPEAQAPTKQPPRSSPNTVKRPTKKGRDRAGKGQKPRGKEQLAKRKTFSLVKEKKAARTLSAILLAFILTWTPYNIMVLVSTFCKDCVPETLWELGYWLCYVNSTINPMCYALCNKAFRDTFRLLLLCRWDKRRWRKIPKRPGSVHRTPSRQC
Chain of AT2 (P50052 whole entry): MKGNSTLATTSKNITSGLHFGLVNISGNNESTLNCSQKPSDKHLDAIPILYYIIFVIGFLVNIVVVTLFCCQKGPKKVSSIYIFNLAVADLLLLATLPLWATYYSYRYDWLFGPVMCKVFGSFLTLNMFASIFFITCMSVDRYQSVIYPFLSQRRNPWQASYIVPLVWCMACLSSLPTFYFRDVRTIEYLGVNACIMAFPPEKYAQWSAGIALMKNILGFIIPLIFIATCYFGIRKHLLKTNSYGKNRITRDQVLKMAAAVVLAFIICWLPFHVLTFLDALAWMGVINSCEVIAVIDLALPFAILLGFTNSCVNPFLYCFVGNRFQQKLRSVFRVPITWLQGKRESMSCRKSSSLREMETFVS
Chain of CysLT1 (Cys-LTs) (Q9Y271 whole entry, species assumed): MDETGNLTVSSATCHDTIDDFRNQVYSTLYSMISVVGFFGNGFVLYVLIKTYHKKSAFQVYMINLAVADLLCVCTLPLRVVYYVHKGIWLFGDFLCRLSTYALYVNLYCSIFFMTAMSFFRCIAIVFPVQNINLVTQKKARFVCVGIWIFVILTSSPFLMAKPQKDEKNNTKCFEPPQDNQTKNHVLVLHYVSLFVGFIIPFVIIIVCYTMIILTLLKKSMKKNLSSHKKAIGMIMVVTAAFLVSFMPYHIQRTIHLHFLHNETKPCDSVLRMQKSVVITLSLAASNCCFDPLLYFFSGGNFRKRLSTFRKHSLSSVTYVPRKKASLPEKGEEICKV
T1 sequence (P43115 whole entry): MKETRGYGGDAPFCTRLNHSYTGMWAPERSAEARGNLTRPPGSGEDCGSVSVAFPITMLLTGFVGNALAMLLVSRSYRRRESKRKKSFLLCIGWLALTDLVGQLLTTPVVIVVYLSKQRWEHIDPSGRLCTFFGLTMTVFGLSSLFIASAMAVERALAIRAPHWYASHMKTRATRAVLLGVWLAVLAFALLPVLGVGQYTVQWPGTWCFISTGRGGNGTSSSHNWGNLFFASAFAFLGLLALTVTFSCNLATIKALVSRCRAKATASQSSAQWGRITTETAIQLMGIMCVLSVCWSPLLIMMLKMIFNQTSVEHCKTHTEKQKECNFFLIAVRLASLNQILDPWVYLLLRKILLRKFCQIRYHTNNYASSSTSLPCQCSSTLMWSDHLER
Chain of NK2 (P21452 whole entry): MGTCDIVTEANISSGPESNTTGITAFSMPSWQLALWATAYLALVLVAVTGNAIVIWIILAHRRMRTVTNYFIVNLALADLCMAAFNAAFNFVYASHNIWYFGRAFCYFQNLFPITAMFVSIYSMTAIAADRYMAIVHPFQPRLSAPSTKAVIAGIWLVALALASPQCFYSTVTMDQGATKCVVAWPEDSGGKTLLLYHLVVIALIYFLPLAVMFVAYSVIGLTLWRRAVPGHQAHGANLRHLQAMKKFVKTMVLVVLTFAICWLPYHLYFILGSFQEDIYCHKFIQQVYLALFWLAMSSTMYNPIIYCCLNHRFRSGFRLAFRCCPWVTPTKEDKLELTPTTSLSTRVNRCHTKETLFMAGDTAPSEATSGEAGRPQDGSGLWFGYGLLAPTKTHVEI
Chain of ETB (P24530 27-442): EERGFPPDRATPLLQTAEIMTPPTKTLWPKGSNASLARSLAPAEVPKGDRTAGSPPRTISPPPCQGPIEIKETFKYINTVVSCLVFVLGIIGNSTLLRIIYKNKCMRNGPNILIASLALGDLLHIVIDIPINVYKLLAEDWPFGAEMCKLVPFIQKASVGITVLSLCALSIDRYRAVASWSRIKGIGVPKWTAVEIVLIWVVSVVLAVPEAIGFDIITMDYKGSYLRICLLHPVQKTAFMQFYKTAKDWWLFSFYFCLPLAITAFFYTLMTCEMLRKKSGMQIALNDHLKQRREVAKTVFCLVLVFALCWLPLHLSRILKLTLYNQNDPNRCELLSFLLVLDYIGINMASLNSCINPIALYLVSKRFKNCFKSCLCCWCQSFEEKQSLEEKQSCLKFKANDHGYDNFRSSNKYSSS
Chain of VPAC1 (VIP1) (P32241 31-457): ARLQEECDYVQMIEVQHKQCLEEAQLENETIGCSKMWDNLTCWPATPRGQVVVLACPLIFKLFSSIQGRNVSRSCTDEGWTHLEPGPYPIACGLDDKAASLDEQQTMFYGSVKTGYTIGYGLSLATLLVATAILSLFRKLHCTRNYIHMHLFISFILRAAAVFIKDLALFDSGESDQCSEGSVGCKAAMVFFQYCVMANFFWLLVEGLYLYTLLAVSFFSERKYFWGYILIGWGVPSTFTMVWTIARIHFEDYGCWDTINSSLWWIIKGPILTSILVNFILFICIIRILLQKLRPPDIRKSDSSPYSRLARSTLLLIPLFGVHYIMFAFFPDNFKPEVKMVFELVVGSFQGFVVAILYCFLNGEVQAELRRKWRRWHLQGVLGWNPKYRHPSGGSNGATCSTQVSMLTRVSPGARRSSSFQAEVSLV
Chain of H2 (P25021 whole entry): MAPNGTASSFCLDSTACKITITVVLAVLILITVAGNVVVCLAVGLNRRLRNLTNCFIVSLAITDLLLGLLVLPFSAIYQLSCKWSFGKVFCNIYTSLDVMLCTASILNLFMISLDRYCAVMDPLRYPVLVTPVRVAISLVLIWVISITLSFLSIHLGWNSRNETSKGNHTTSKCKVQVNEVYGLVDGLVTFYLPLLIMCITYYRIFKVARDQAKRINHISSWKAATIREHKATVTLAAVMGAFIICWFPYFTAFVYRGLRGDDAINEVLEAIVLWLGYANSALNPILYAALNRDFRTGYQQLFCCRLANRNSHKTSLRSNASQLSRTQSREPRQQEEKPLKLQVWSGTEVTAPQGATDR
Chain of 5-HT2A (P28223 whole entry): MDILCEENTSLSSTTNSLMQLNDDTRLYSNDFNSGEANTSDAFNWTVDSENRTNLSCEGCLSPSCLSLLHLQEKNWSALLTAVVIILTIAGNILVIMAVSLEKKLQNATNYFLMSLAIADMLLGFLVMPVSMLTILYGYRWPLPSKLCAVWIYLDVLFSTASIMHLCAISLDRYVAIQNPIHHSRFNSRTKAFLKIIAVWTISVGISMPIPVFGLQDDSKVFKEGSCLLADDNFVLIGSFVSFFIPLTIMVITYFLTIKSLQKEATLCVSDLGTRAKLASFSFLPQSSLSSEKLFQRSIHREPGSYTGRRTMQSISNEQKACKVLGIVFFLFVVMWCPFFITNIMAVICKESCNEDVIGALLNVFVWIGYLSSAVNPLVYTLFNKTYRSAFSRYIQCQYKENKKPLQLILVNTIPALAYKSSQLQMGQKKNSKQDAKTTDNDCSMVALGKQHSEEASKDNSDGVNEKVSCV
Chain of A3 (P0DMS8 whole entry): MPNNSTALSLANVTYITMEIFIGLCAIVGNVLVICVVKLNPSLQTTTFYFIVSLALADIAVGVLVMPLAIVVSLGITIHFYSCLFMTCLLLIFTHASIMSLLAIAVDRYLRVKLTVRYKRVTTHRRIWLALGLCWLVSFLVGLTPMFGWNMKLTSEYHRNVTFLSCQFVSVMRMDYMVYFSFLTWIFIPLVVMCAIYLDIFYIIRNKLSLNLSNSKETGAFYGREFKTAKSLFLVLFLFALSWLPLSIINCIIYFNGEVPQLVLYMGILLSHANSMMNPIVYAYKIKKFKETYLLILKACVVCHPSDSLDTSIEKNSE
Chain of AR (P10275 whole entry T878A): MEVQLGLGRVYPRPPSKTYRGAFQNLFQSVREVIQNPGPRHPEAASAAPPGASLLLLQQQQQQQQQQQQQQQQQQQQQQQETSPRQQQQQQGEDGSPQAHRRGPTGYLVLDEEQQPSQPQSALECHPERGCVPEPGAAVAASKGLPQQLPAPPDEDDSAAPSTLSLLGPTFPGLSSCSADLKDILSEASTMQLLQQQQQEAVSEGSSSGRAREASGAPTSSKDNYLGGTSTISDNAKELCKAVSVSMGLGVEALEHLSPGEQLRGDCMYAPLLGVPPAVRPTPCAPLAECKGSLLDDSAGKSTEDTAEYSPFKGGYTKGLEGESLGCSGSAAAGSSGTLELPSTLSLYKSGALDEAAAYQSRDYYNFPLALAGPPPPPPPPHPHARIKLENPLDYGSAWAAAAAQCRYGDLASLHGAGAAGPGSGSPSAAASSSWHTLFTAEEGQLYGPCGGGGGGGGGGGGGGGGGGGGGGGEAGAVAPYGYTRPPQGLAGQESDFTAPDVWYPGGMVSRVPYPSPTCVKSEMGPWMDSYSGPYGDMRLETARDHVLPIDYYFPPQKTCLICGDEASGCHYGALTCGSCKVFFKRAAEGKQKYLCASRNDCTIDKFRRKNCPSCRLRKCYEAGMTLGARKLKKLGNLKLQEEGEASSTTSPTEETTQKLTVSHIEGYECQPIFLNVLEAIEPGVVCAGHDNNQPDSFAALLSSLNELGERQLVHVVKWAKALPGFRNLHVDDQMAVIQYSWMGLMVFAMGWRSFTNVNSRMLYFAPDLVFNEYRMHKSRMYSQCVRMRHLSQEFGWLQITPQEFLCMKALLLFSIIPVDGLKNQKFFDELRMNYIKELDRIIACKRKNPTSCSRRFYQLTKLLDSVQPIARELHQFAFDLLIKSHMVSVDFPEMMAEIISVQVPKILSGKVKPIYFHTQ

O=C([O-])c1ccc(C2(NC(=O)[C@H]3CC4(CCN3Cc3ccc(C(F)(F)F)cc3)CC4)CC2)cc1.[Na+] [CR6086, Sodium (R)-4-(1-(6-(4-(trifluoromethyl)benzyl)-6-azaspiro[2.5]octane-5-carboxamido)cyclopropyl)benzoate]
inhibition at 10 µM [1]: < 20% | inhibition at 10 µM [2]: < 20% | inhibition at 10 µM [3]: < 20% | CR6086 Activity at 10µM [4]: IN (IN = < 20% displacement or inhibition (all tables)) | inhibition at 10 µM [5]: < 20% | inhibition at 10 µM [6]: < 20% | CR6086 Activity at 10µM [7]: IN (IN = < 20% displacement or inhibition (all tables)) | inhibition at 10 µM [8]: < 20% | CR6086 Activity at 10µM [9]: IN (IN = < 20% displacement or inhibition (all tables)) | inhibition at 10 µM [10]: < 20% | inhibition at 10 µM [11]: < 20% | inhibition at 10 µM [12]: < 20% | inhibition at 10 µM [13]: < 20% | CR6086 Activity at 10µM [14]: IN (IN = < 20% displacement or inhibition (all tables)) | IFNγ serum concentration [15, 28]: 1.79 ± 0.32 pg/mL | IL-10 serum concentration [15, 28]: 16.17 ± 1.95 pg/mL | IL-17 serum concentration [15, 28]: 2.36 ± 0.62 pg/mL | TNFα serum concentration [15, 28]: 34.37 ± 2.21 pg/mL | IL-10 serum concentration [15, 29]: 18.16 ± 2.65 pg/mL | IL-17 serum concentration [15, 29]: 0.92 ± 0.20 pg/mL | TNFα serum concentration [15, 29]: 33.67 ± 3.58 pg/mL | effect on IL-6 mean serum concentrations ([15]; 60 mg/kg oral once daily): returned towards normal levels | histological scores of the signal limb ([15]; 30 and 60 mg/kg oral once daily): acts as a disease modifier | inhibition at 10 µM [16]: < 20% | inhibition at 10 µM [17]: < 20% | inhibition at 10 µM [18]: < 20% | inhibition at 10 µM [19]: < 20% | inhibition at 10 µM [20]: < 20% | inhibition at 10 µM [21]: < 20% | inhibition at 10 µM [22]: < 20% | inhibition at 10 µM [23]: < 20% | inhibition at 10 µM [24]: < 20% | CR6086 Activity at 10µM [25]: IN (IN = < 20% displacement or inhibition (all tables)) | Anti-collagen II [26]: 324.91 ± 79.82 µg/mL | CR6086 Activity at 10µM [27]: IN (IN = < 20% displacement or inhibition (all tables))
